Data published in patent US10138260B2, “Compounds of phosphinanes and azaphosphinanes, a process for their preparation and pharmaceutical compositions containing them” (LES LABORATOIRES SERVIER, priority 2016, dated 2018).

Target: T1, TAFIa (Homo sapiens, UniProt Q96IY4)
T1 sequence (Q96IY4 115-423): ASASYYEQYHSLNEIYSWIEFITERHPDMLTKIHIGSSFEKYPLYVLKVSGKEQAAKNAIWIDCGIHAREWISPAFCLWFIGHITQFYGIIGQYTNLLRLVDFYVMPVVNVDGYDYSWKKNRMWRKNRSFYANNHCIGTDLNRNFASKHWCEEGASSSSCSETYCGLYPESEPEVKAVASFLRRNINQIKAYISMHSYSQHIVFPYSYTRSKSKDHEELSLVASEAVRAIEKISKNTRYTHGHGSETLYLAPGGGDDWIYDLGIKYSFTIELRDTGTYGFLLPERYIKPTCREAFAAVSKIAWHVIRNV
Assay: Inhibition of TAFIa (hippuryl-Arg test)
Assay type: biochemical
Settings: TAFIa 2 nM, hippuryl-arginine 5 mM, 45 minutes, relative to control containing the carrier; for inhibition at 0.01 µM: compound at 10 nM; for inhibition at 0.02 µM: compound at 20 nM
Procedure: Human TAFI (4 nM) is incubated with human thrombin (10 nM) and human thrombomodulin (5 nM) in the presence of calcium (10 mM). After incubation for 20 minutes, the activation reaction is stopped by addition of PPACK (1 μM final), an irreversible thrombin inhibitor.
The reactions take place in Hepes buffer (25 mM Hepes, 137 mM NaCl, 3.5 mM KCl)+0.1% bovine albumin, pH 7.4 at 28° C. and with stirring.
The test compound is added to the solution of TAFIa (2 nM) and incubated for 45 minutes in the presence of hippuryl-arginine (5 mM). The reaction is stopped by addition of hydrochloric acid (1M) neutralised subsequently with sodium hydroxide (1M), and then the mixture is buffered with disodium hydroxyphosphate (1M pH 7.4). […] The reaction mixture is stirred (vortex) and then centrifuged. The supernatant is transferred to a 96-well microplate, and the absorbance is measured using a spectrophotometer at 405 nm (Spectramax plus, Molecular Devices).
The OD value of a well containing the reagents without TAFI is subtracted from all the OD values measured. The percentage inhibition of TAFIa at a given concentration of the test compound is determined by means of the following formula: % inhibition=100−[(OD compound×100)/OD carrier]
The compounds are evaluated at 10 nM and 20 nM under the experimental conditions described above and the results are expressed as the percentage inhibition relative to a control containing the carrier in the absence of compound.

SMILES | inhibition at 0.01 µM [%] | inhibition at 0.02 µM [%]
NCCCCC1(C(=O)O)CN(Cc2ccccc2-c2cc(Cl)ccc2Cl)CCP1(=O)O (centres unmarked) [Example 48, 3-(4-AMINOBUTYL)-1-[[2-(2,5-DICHLOROPHENYL)PHENYL]METHYL]-4-HYDROXY-4-OXO-1,4-AZAPHOSPHINANE-3-CARBOXYLIC ACID] | 45 | 54
NCCCCC1(C(=O)O)CN(Cc2ccccc2-c2cccc(-c3ccccc3)c2)CCP1(=O)O (centres unmarked) [Example 49, 3-(4-AMINOBUTYL)-4-HYDROXY-4-OXO-1-[[2-(3-PHENYLPHENYL)PHENYL]-METHYL]-1,4-AZAPHOSPHINANE-3-CARBOXYLIC ACID] | 60 | 73
NCCCCC1(C(=O)O)CN(Cc2ccccc2-c2ccc3ccccc3c2)CCP1(=O)O (centres unmarked) [Example 50, 3-(4-AMINOBUTYL)-4-HYDROXY-1-[(2-NAPHTHALEN-2-YLPHENYL)METHYL]-4-OXO-1,4-AZAPHOSPHINANE-3-CARBOXYLIC ACID] | 53 | 66
NCCCCC1(C(=O)O)CN(Cc2ccc(F)cc2-c2ccc(O)cc2)CCP1(=O)O (centres unmarked) [Example 104, 3-(4-AMINOBUTYL)-1-[[4-FLUORO-2-(4-HYDROXYPHENYL)PHENYL]METHYL]-4-HYDROXY-4-OXO-1,4-AZAPHOSPHINANE-3-CARBOXYLIC ACID] | 37 | 68
NCCCCC1(C(=O)O)CN(Cc2ccsc2-c2ccccc2)CCP1(=O)O (centres unmarked) [Example 105, 3-(4-AMINOBUTYL)-4-HYDROXY-4-OXO-1-[(2-PHENYLTHIOPHEN-3-YL)METHYL]-1,4-AZAPHOSPHINANE-3-CARBOXYLIC ACID] | 44 | 66
NCCCCC1(C(=O)O)CN(Cc2ccccc2-c2nccs2)CCP1(=O)O (centres unmarked) [Example 108, 3-(4-AMINOBUTYL)-4-HYDROXY-4-OXO-1-[[2-(1,3-THIAZOL-2-YL)PHENYL]-METHYL]-1,4-AZAPHOSPHINANE-3-CARBOXYLIC ACID] | 25 | 29
NCCCCC1(C(=O)O)CN(Cc2ccccc2-c2cccc3ccccc23)CCP1(=O)O (centres unmarked) [Example 109, 3-(4-AMINOBUTYL)-4-HYDROXY-1-[(2-NAPHTHALEN-1-YLPHENYL)METHYL]-4-OXO-1,4-AZAPHOSPHINANE-3-CARBOXYLIC ACID] | 58 | 71
NCCCCC1(C(=O)O)CN(Cc2ccc(Cl)cc2-c2ccc(Cl)cc2)CCP1(=O)O (centres unmarked) [Example 113, 3-(4-AMINOBUTYL)-1-[[4-CHLORO-2-(4-CHLOROPHENYL)PHENYL]METHYL]-4-HYDROXY-4-OXO-1,4-AZAPHOSPHINANE-3-CARBOXYLIC ACID] | 68 | 90
NCCCCC1(C(=O)O)CN(Cc2ccccc2-c2ccccc2-c2ccccc2)CCP1(=O)O (centres unmarked) [Example 114, 3-(4-AMINOBUTYL)-4-HYDROXY-4-OXO-1-[[2-(2-PHENYLPHENYL)PHENYL]-METHYL]-1,4-AZAPHOSPHINANE-3-CARBOXYLIC ACID] | 42 | 51
NCCCCC1(C(=O)O)CN(Cc2ccccc2-c2ccc3c(c2)OCO3)CCP1(=O)O (centres unmarked) [Example 164, 3-(4-AMINOBUTYL)-1-[[2-(1,3-BENZODIOXOL-5-YL)PHENYL]METHYL]-4-HYDROXY-4-OXO-1,4-AZAPHOSPHINANE-3-CARBOXYLIC ACID] | 66 | 87
COc1ccc(-c2ccccc2CN2CCP(=O)(O)C(CCCCN)(C(=O)O)C2)cn1 (centres unmarked) [Example 165, 3-(4-AMINOBUTYL)-4-HYDROXY-1-[[2-(6-METHOXYPYRIDIN-3-YL)PHENYL]-METHYL]-4-OXO-1,4-AZAPHOSPHINANE-3-CARBOXYLIC ACID] | 76 | 91
NCCCCC1(C(=O)O)CN(Cc2ccccc2-c2ccc(=O)[nH]c2)CCP1(=O)O (centres unmarked) [Example 166, 3-(4-AMINOBUTYL)-4-HYDROXY-4-OXO-1-[[2-(6-OXO-1H-PYRIDIN-3-YL)PHENYL]METHYL]-1,4-AZAPHOSPHINANE-3-CARBOXYLIC ACID] | 66 | 93
NCCCCC1(C(=O)O)CN(Cc2ccccc2-c2cnc3ccccn23)CCP1(=O)O (centres unmarked) [Example 167, 3-(4-AMINOBUTYL)-4-HYDROXY-1-[(2-IMIDAZO[1,2-A]PYRIDIN-3-YLPHENYL)-METHYL]-4-OXO-1,4-AZAPHOSPHINANE-3-CARBOXYLIC ACID] | 61 | 67
CC(C)c1ccccc1CN1CCP(=O)(O)C(CCCCN)(C(=O)O)C1 (centres unmarked) [Example 174, 3-(4-AMINOBUTYL)-4-HYDROXY-4-OXO-1-[(2-PROPAN-2-YLPHENYL)METHYL]-1,4-AZAPHOSPHINANE-3-CARBOXYLIC ACID] | 43 | 51
NCCCCC1(C(=O)O)CN(Cc2ccccc2-c2ccc(Cl)c(Cl)c2)CCP1(=O)O (centres unmarked) [Example 175, 3-(4-AMINOBUTYL)-1-[[2-(3,4-DICHLOROPHENYL)PHENYL]METHYL]-4-HYDROXY-4-OXO-1,4-AZAPHOSPHINANE-3-CARBOXYLIC ACID] | 55 | 77
COc1ccc(-c2cc(F)ccc2CN2CCP(=O)(O)[C@](CCCCN)(C(=O)O)C2)cc1OC [Example 179, (3S)-3-(4-AMINOBUTYL)-1-[[2-(3,4-DIMETHOXYPHENYL)-4-FLUOROPHENYL]-METHYL]-4-HYDROXY-4-OXO-1,4-AZAPHOSPHINANE-3-CARBOXYLIC ACID] | 74 | 83
Cc1ccc(-c2cc(F)ccc2CN2CCP(=O)(O)[C@](CCCCN)(C(=O)O)C2)cc1 [Example 180, (3S)-3-(4-AMINOBUTYL)-1-[[4-FLUORO-2-(4-METHYLPHENYL)PHENYL]-METHYL]-4-HYDROXY-4-OXO-1,4-AZAPHOSPHINANE-3-CARBOXYLIC ACID] | 54 | 73
NCCCC[C@@]1(C(=O)O)CN(Cc2ccccc2-c2cncnc2)CCP1(=O)O [Example 182, (3S)-3-(4-AMINOBUTYL)-4-HYDROXY-4-OXO-1-[(2-PYRIMIDIN-5-YLPHENYL)-METHYL]-1,4-AZAPHOSPHINANE-3-CARBOXYLIC ACID] | 81 | 95
NCCCC[C@@]1(C(=O)O)CN(Cc2ccccc2-c2cccs2)CCP1(=O)O [Example 183, (3S)-3-(4-AMINOBUTYL)-4-HYDROXY-4-OXO-1-[(2-THIOPHEN-2-YLPHENYL)-METHYL]-1,4-AZAPHOSPHINANE-3-CARBOXYLIC ACID] | 73 | 88
NCCCC[C@@]1(C(=O)O)CN(Cc2ccccc2-c2cccnc2)CCP1(=O)O [Example 184, (3S)-3-(4-AMINOBUTYL)-4-HYDROXY-4-OXO-1-[(2-PYRIDIN-3-YLPHENYL)-METHYL]-1,4-AZAPHOSPHINANE-3-CARBOXYLIC ACID] | 67 | 95
COc1cccc(-c2cc(F)ccc2CN2CCP(=O)(O)[C@](CCCCN)(C(=O)O)C2)c1 [Example 185, (3S)-3-(4-AMINOBUTYL)-1-[[4-FLUORO-2-(3-METHOXYPHENYL)PHENYL]-METHYL]-4-HYDROXY-4-OXO-1,4-AZAPHOSPHINANE-3-CARBOXYLIC ACID] | 69 | 85
COc1ccc(-c2cc(F)ccc2CN2CCP(=O)(O)[C@](CCCCN)(C(=O)O)C2)cc1 [Example 187, (3S)-3-(4-AMINOBUTYL)-1-[[4-FLUORO-2-(4-METHOXYPHENYL)PHENYL]-METHYL]-4-HYDROXY-4-OXO-1,4-AZAPHOSPHINANE-3-CARBOXYLIC ACID] | 74 | 97
Cc1ccc(-c2ccccc2CN2CCP(=O)(O)[C@](CCCCN)(C(=O)O)C2)cc1 [Example 188, (3S)-3-(4-AMINOBUTYL)-4-HYDROXY-1-[[2-(4-METHYLPHENYL)PHENYL]-METHYL]-4-OXO-1,4-AZAPHOSPHINANE-3-CARBOXYLIC ACID] | 64 | 86
NCCCC[C@@]1(C(=O)O)CN(Cc2ccc(F)cc2-c2ccc(F)cc2)CCP1(=O)O [Example 189, (3S)-3-(4-AMINOBUTYL)-1-[[4-FLUORO-2-(4-FLUOROPHENYL)PHENYL]METHYL]-4-HYDROXY-4-OXO-1,4-AZAPHOSPHINANE-3-CARBOXYLIC ACID] | 71 | 78
NCCCC[C@@]1(C(=O)O)CN(Cc2ccc(F)cc2-c2cccnc2)CCP1(=O)O [Example 190, (3S)-3-(4-AMINOBUTYL)-1-[(4-FLUORO-2-PYRIDIN-3-YLPHENYL)METHYL]-4-HYDROXY-4-OXO-1,4-AZAPHOSPHINANE-3-CARBOXYLIC ACID] | 88 | 95
